Experimental data published in US20220401514A1, “ANTIMICROBIAL, BACTERIOPHAGE-DERIVED POLYPEPTIDES AND THEIR USE AGAINST GRAM-NEGATIVE AND ACID-FAST BACTERIA” (CONTRAFECT CORPORATION, priority 2019, published 2022).

Assays:
[1] = tested on: P. aeruginosa strain CFS-1292; experiment: LIVE/DEAD stain microscopy in 100% human serum; assay type: cell-based, Pseudomonas aeruginosa; conditions: 15 minutes, 10 μg/mL
From the text: Samples were visualized by BF and fluorescence microscopy (10 ms exposure). […] was used to label live cells, and PI was used to label damaged and dead cells.

[2] = tested on: P. aeruginosa strain PA20 persister cells; experiment: Activity against persister cells, P. aeruginosa; assay type: cell-based, Pseudomonas aeruginosa
[3] = tested on: inner membrane of Gram-negative bacteria (including P. aeruginosa, E. cloacae, K. pneumoniae, E. coli, and A. baumannii); experiment: Inner membrane depolarization, diSC3-5 release; assay type: cell-based
From the text: The mechanism of action of Chp peptides disclosed herein can also be evaluated by measuring the depolarization of the inner membrane of Gram-negative bacteria. […] Upon permeabilization of the outer membrane, the ability of Chp peptides to induce dissipation of the cytoplasmic membrane electrical potential gradient (Δψ) may be examined, for example by following the release of 3,3′-dipropylthiadicarbocyanine (diSC3-5) as a function of time compared to an untreated control. DiSC3-5 is a fluorophore that is a caged cation concentrated within the bacterial inner membrane and under the influence of the bacterial membrane electrical potential gradient. At high concentrations, diSC3-5 self-quenches, leading to the suppression of fluorescence. When the inner membrane deteriorates or becomes leaky for cations, including protons, the A it dissipates, which leads to a release of diSC3-5 and a subsequent increase in fluorescence.

[4] = tested on: LPS; experiment: Endotoxin neutralization, limulus amoebocyte lysate (LAL) enzyme assay, LPS binding; assay type: biochemical; conditions: LPS 0.8 EU/mL
Description: CHEM. […] The standard reference samples contained only LPS dissolved in pyrogen-free water. Solutions were mixed well and incubated at 24° C. for 1 hour, and the manufacturers' test procedure for quantitative detection of endotoxins was followed.

MRLKMARRRYRLPRRRSRRLFSRTALRMHPRNRLRRIMRGGIRF [Chp2]
killing of P. aeruginosa, Live/Dead Cell Viability Kit [1]: reduction of live bacteria
Viable persister count after treatment (log10 CFU/mL) ([2]; P. aeruginosa PA20 persister cells, Run #1, limit of detection 2-log10 CFU/mL): 2.7 Log10 (CFU/mL)
Viable persister count after treatment (log10 CFU/mL) ([2]; P. aeruginosa PA20 persister cells, Run #2, limit of detection 2-log10 CFU/mL): 2.3 Log10 (CFU/mL)
Viable persister count after treatment (log10 CFU/mL) ([2]; P. aeruginosa PA20 persister cells, Run #3, limit of detection 2-log10 CFU/mL): 2 Log10 (CFU/mL)
Viable persister count after treatment (log10 CFU/mL) ([2]; P. aeruginosa PA20 persister cells, average of 3 runs): 2.3 Log10 (CFU/mL)
Delta Log ([2]; P. aeruginosa PA20 persister cells, log10 CFU/mL reduction as compared to buffer): 2.1
log10 CFU/mL reduction as compared to buffer ([2]; P. aeruginosa persister cells, 1 hour at 37° C.): 2.1 log10 CFU/mL
membrane depolarization (diSC3-5) [3]: dose-dependent increase in membrane depolarization, equivalent or superior to that of melittin, LL37, RI-18, and PMBN
LPS binding ([4]; […]-64 μg/mL, 24° C., 1 hour): demonstrate binding to LPS
% LPS Bound ([4]; peptide concentration 0.5 μg/mL): 28.7%
% LPS Bound ([4]; peptide concentration 1 μg/mL): 28.0%
% LPS Bound ([4]; peptide concentration 2 μg/mL): 27.0%
% LPS Bound ([4]; peptide concentration 4 μg/mL): 29.3%
% LPS Bound ([4]; peptide concentration 8 μg/mL): 31.0%
% LPS Bound ([4]; peptide concentration 16 μg/mL): 40.8%
% LPS Bound ([4]; peptide concentration 32 μg/mL): 58.1%
% LPS Bound ([4]; peptide concentration 64 μg/mL): 71.0%
